According to US7388025B2, “3-aryl-isoxazole-4-carbonyl-benzofuran derivatives” (Hoffman-La Roche Inc., priority 2005, dated 2008):

Molecular target: T1, human GABA A receptor α5β3γ2 (Homo sapiens, UniProt P18507+P31644)
T1 construct: expressed in transfected cells; host or cells: HEK293 cells, transiently transfected; membranes prepared from them
Test: [3H]flumazenil competition binding, HEK293 cells expressing human GABA A α5β3γ2 receptors
Settings: human α5β3γ2 in HEK293 (transiently transfected), 0.5 nM [3H]flumazenil, mean of two determinations; read-out: Ki[nM] hα5
Experimental: Membrane Preparation and Binding Assay
The affinity of compounds at GABA A receptor subtypes was measured by competition for [3H]flumazenil (85 Ci/mmol; Roche) binding to HEK293 cells expressing rat (stably transfected) or human (transiently transfected) receptors of composition α1β3γ2, α2β3γ2, α3β3γ2 and α5β3γ2.
Cell pellets were suspended in Krebs-tris buffer (4.8 mM KCl, 1.2 mM CaCl2, 1.2 mM MgCl2, 120 mM NaCl, 15 mM Tris; pH 7.5; binding assay buffer), homogenized by polytron for ca. 20 sec on ice and centrifuged for 60 min at 4° C. (50000 g; Sorvall, rotor: SM24=20000 rpm). The cell pellets were resuspended in Krebs-tris buffer and homogenized by polytron for ca. 15 sec on ice. Protein was measured (Bradford method, Bio-Rad) and aliquots of 1 mL were prepared and stored at −80° C.
Radioligand binding assays were carried out in a volume of […] (96-well plates) which contained […] of cell memebranes, [3H]flumazenil at a concentration of 1 nM for α1, α2, α3 subunits and 0.5 nM for α5 subunits and the test compound in the range of […]. Nonspecific binding was defined by 10^−5 M diazepam and typically represented less than 5% of the total binding. Assays were incubated to equilibrium for 1 hour at 4° C. and harvested onto GF/C uni-filters (Packard) by filtration using a Packard harvester and washing with ice-cold wash buffer (50 mM Tris; pH 7.5). After drying, filter-retained radioactivity was detected by liquid scintillation counting. Ki values were calculated using Excel-Fit (Microsoft) and are the means of two determinations.

Compound	Ki
COc1cccc2cc(C(=O)c3c(-c4ccccc4)noc3C)oc12 [Example 5, (7-Methoxy-benzofuran-2-yl)-(5-methyl-3-phenyl-isoxazol-4-yl)-methanone]	4 nM
Cc1onc(-c2ccc(Br)cc2)c1C(=O)c1cc2ccccc2o1 [Example 28, Benzofuran-2-yl-[3-(4-bromo-phenyl)-5-methyl-isoxazol-4-yl]-methanone]	8.1 nM
COc1ccc2cc(C(=O)c3c(-c4ccc(Br)cc4)noc3C)oc2c1 [Example 41, [3-(4-Bromo-phenyl)-5-methyl-isoxazol-4-yl]-(6-methoxy-benzofuran-2-yl)-methanone]	3.1 nM
Cc1onc(-c2ccc(Br)cc2)c1C(=O)c1cc2cccc(O)c2o1 [Example 30, [3-(4-Bromo-phenyl)-5-methyl-isoxazol-4-yl]-(7-hydroxy-benzofuran-2-yl)-methanone]	17.4 nM
Cc1onc(-c2ccc(Br)cc2)c1C(=O)c1cc2cccc(OCc3ccncc3)c2o1 [Example 36, [3-(4-Bromo-phenyl)-5-methyl-isoxazol-4-yl]-[7-(pyridin-4-ylmethoxy)-benzofuran-2-yl]-methanone]	35.9 nM
Cc1onc(-c2ccc(Br)cc2)c1C(=O)c1cc2cccc(OC(C)C)c2o1 [Example 33, [3-(4-Bromo-phenyl)-5-methyl-isoxazol-4-yl]-(7-isopropoxy-benzofuran-2-yl)-methanone]	32.9 nM
Cc1onc(-c2ccc(Br)cc2)c1C(=O)c1cc2ccc(O)cc2o1 [Example 40, [3-(4-Bromo-phenyl)-5-methyl-isoxazol-4-yl]-(6-hydroxy-benzofuran-2-yl)-methanone]	9.3 nM
Cc1cc(COc2cccc3cc(C(=O)c4c(-c5ccccc5)noc4C)oc23)on1 [Example 15, [7-(3-Methyl-isoxazol-5-ylmethoxy)-benzofuran-2-yl]-(5-methyl-3-phenyl-isoxazol-4-yl)-methanone]	18.9 nM
Cc1onc(-c2ccccc2)c1C(=O)c1cc2cccc(OCc3cccnc3)c2o1 [Example 9, (5-Methyl-3-phenyl-isoxazol-4-yl)-[7-(pyridin-3-ylmethoxy)-benzofuran-2-yl]-methanone]	31.3 nM
COc1cccc2cc(C(=O)c3c(-c4ccc(Br)cc4)noc3C)oc12 [Example 31, [3-(4-Bromo-phenyl)-5-methyl-isoxazol-4-yl]-(7-methoxy-benzofuran-2-yl)-methanone]	3.7 nM
Cc1onc(-c2ccccc2)c1C(=O)c1cc2cccc(O)c2o1 [Example 4, (7-Hydroxy-2-benzofuranyl)(5-methyl-3-phenyl-4-isoxazolyl)methanone]	6.9 nM
Cc1cc(COc2cccc3cc(C(=O)c4c(-c5ccc(Br)cc5)noc4C)oc23)on1 [Example 39, [3-(4-Bromo-phenyl)-5-methyl-isoxazol-4-yl]-[7-(3-methyl-isoxazol-5-ylmethoxy)-benzofuran-2-yl]-methanone]	63.8 nM
Cc1onc(-c2ccccc2)c1C(=O)c1cc2cccc(F)c2o1 [Example 2, (7-Fluoro-benzofuran-2-yl)-(5-methyl-3-phenyl-isoxazol-4-yl)-methanone]	17.8 nM
Cc1onc(-c2ccccc2)c1C(=O)c1cc2c(ccc3ccccc32)o1 [Example 27, (5-Methyl-3-phenyl-isoxazol-4-yl)-naphtho[2,1-b]furan-2-yl-methanone]	13.7 nM
Cc1onc(-c2ccc(Br)cc2)c1C(=O)c1cc2cc(O)ccc2o1 [Example 42, [3-(4-Bromo-phenyl)-5-methyl-isoxazol-4-yl]-(5-hydroxy-benzofuran-2-yl)-methanone]	4.6 nM
Cc1onc(-c2ccccc2)c1C(=O)c1cc2ccccc2o1 [Example 1, Benzofuran-2-yl-(5-methyl-3-phenyl-isoxazol-4-yl)-methanone]	15.2 nM
Cc1onc(-c2ccc(Br)cc2)c1C(=O)c1cc2cccc(OCc3ccccn3)c2o1 [Example 34, [3-(4-Bromo-phenyl)-5-methyl-isoxazol-4-yl]-[7-(pyridin-2-ylmethoxy)-benzofuran-2-yl]-methanone]	36.3 nM
COc1ccc2oc(C(=O)c3c(-c4ccc(Br)cc4)noc3C)cc2c1 [Example 43, [3-(4-Bromo-phenyl)-5-methyl-isoxazol-4-yl]-(5-methoxy-benzofuran-2-yl)-methanone]	2.9 nM
CCOc1cccc2cc(C(=O)c3c(-c4ccc(Br)cc4)noc3C)oc12 [Example 32, [3-(4-Bromo-phenyl)-5-methyl-isoxazol-4-yl]-(7-ethoxy-benzofuran-2-yl)-methanone]	9.4 nM
Cc1onc(-c2ccc(Br)cc2)c1C(=O)c1cc2cccc(OCc3cccnc3)c2o1 [Example 35, [3-(4-Bromo-phenyl)-5-methyl-isoxazol-4-yl]-[7-(pyridin-3-ylmethoxy)-benzofuran-2-yl]-methanone]	36.4 nM

More lines, now with the values ahead:

Ki	Compound
1.4 nM	(5-Methoxy-benzofuran-2-yl)-(5-methyl-3-phenyl-isoxazol-4-yl)-methanone [Example 21]
4.8 nM	COc1cccc2oc(C(=O)c3c(-c4ccc(Br)cc4)noc3C)cc12 [Example 44, [3-(4-Bromo-phenyl)-5-methyl-isoxazol-4-yl]-(4-methoxy-benzofuran-2-yl)-methanone]
16.7 nM	Cc1onc(-c2ccccc2)c1C(=O)c1cc2cccc(OCc3ccccn3)c2o1 [Example 8, (5-Methyl-3-phenyl-isoxazol-4-yl)-[7-(pyridin-2-ylmethoxy)-benzofuran-2-yl]-methanone]
27.9 nM	Cc1onc(-c2ccccc2)c1C(=O)c1cc2cccc(OCc3ccncc3)c2o1 [Example 10, (5-Methyl-3-phenyl-isoxazol-4-yl)-[7-(pyridin-4-ylmethoxy)-benzofuran-2-yl]-methanone]
11.7 nM	Cc1onc(-c2ccc(Br)cc2)c1C(=O)c1cc2cccc(F)c2o1 [Example 29, [3-(4-Bromo-phenyl)-5-methyl-isoxazol-4-yl]-(7-fluoro-benzofuran-2-yl)-methanone]
3.5 nM	COc1ccc2cc(C(=O)c3c(-c4ccccc4)noc3C)oc2c1 [Example 17, (6-Methoxy-benzofuran-2-yl)-(5-methyl-3-phenyl-isoxazol-4-yl)-methanone]
4.3 nM	COc1cc(OC)c2cc(C(=O)c3c(-c4ccccc4)noc3C)oc2c1 [Example 26, (4,6-Dimethoxy-benzofuran-2-yl)-(5-methyl-3-phenyl-isoxazol-4-yl)-methanone]
2.3 nM	Cc1onc(-c2ccc(Br)cc2)c1C(=O)c1cc2cccc(OCC(=O)NC(C)C)c2o1 [Example 37, 2-{2-[3-(4-Bromo-phenyl)-5-methyl-isoxazole-4-carbonyl]-benzofuran-7-yloxy}-N-isopropyl-acetamide]
7.5 nM	Cc1onc(-c2ccccc2)c1C(=O)c1cc2cccc(Br)c2o1 [Example 3, (7-Bromo-benzofuran-2-yl)-(5-methyl-3-phenyl-isoxazol-4-yl)-methanone]
3.7 nM	Cc1onc(-c2ccccc2)c1C(=O)c1cc2ccc(O)cc2o1 [Example 16, (6-Hydroxy-benzofuran-2-yl)-(5-methyl-3-phenyl-isoxazol-4-yl)-methanone]
13.8 nM	Cc1onc(-c2ccccc2)c1C(=O)c1cc2cccc(OCc3ncnn3C)c2o1 [Example 14, (5-Methyl-3-phenyl-isoxazol-4-yl)-[7-(2-methyl-2H-[1,2,4]triazol-3-ylmethoxy)-benzofuran-2-yl]-methanone]
1.8 nM	Cc1onc(-c2ccccc2)c1C(=O)c1cc2cccc(OCC(=O)NC(C)C)c2o1 [Example 13, N-Isopropyl-2-[2-(5-methyl-3-phenyl-isoxazole-4-carbonyl)-benzofuran-7-yloxy]-acetamide]
10.1 nM	Cc1onc(-c2ccccc2)c1C(=O)c1cc2cc(OC(F)(F)F)ccc2o1 [Example 23, (5-Methyl-3-phenyl-isoxazol-4-yl)-(5-trifluoromethoxy-benzofuran-2-yl)-methanone]
4.6 nM	COc1ccc2oc(C(=O)c3c(-c4ccccc4)noc3C)cc2c1 [Example 22, (5-Methoxy-benzofuran-2-yl)-(5-methyl-3-phenyl-isoxazol-4-yl)-methanone]
20 nM	Cc1onc(-c2ccccc2)c1C(=O)c1cc2cc(Cl)ccc2o1 [Example 19, (5-Chloro-benzofuran-2-yl)-(5-methyl-3-phenyl-isoxazol-4-yl)-methanone]
15.1 nM	Cc1onc(-c2ccc(Br)cc2)c1C(=O)c1cc2cccc(OCc3ncnn3C)c2o1 [Example 38, [3-(4-Bromo-phenyl)-5-methyl-isoxazol-4-yl]-[7-(2-methyl-2H-[1,2,4]triazol-3-ylmethoxy)-benzofuran-2-yl]-methanone]
10.6 nM	COc1cccc2oc(C(=O)c3c(-c4ccccc4)noc3C)cc12 [Example 25, (4-Methoxy-benzofuran-2-yl)-(5-methyl-3-phenyl-isoxazol-4-yl)-methanone]
41.6 nM	Cc1onc(-c2ccccc2)c1C(=O)c1cc2cc(Br)ccc2o1 [Example 20, (5-Bromo-benzofuran-2-yl)-(5-methyl-3-phenyl-isoxazol-4-yl)-methanone]
